Assay results as given in article PMC8398847, “Isavuconazole: Thermodynamic Evaluation of Processes Sublimation, Dissolution and Partition in Pharmaceutically Relevant Media” (Molecules, 2021).

Tests used:
[1] = PXRD analysis of bottom phases after solubility experiments; type: physicochemical; conditions: all the studied solvents; no solvated forms
Description: The IVZ solubility values in buffer solutions of different acidity, ethanol, propanol, 1-octanol and hexane within the temperature range of 293.15–313.15 K were determined by the isothermal saturation method and are presented in Table 2 and Figure 5. After the solubility experiments, the bottom phases were removed from the saturated solutions and analyzed by the PXRD method.
After the solubility study was complete, PXRD analysis was performed on isavuconazole powders recovered from solvents. All samples were measured at 40 kV and 40 mA using a Bruker D8 Advance diffractometer with CuKa radiation (λ = 1.5406 Å) at room temperature. Diffraction patterns for the samples were collected by changing the angle of diffraction (2θ) from 5° to 30° with a step size 0.03°.

[2] = Dissolution thermodynamics: ideal solubility, activity coefficients at infinite dilution, excess functions; type: physicochemical
Excerpt: The temperature dependence of solute solubility is described by the thermodynamic relationship:(26) lnx=lnxid−lnγ=ΔmH/RT[T−Tm/T]+∫TmT∫TmT(CpL−CpS)dT/RT^2−lnγ where x, xid, γ, Tm, ΔmH, ΔCp=CpL−CpS , R, and T represent the solubility mole fraction of the solute in solution, ideal mole fraction solubility of the solute, activity coefficient of the solute in solution, melting temperature of the solute, enthalpy of melting of the pure solute, differential molar heat capacity of the pure solute, gas constant and temperature, respectively. If the solubility or equilibrium mole fraction of a compound in solvents studied is low, it is assumed that the last term in Equation (26) denotes the infinite dilution activity coefficient lnγ^∞, which can be expressed as:(27) lnγ∞=ΔHsolE/RT−ΔSsolE/R where ΔHsolE and ΔSsolE represent the partial molar excess enthalpy, and partial molar excess entropy, respectively, and are assumed to be temperature independent. As the quantity ΔCp is assumed to be negligible and considered to be zero [52], substituting ΔCp = 0 into Equation (26) simplifies to (28) lnxid=−ΔHm/RTmln[Tm/T]

- solid-phase stability during solubility experiments (PXRD) [1]: stable
- lnγ^∞ ([2]; 1-octanol, 293.15 K): 2.40
- G^E ([2]; 1-octanol, 298.15 K): 1.4 ± 0.048 kcal/mol
- H^E ([2]; 1-octanol, 298.15 K): 0.865 ± 0.024 kcal/mol
- S^E ([2]; 1-octanol, 298.15 K): −7.5 ± 0.3 J·mol^−1·K^−1
- TS^E ([2]; 1-octanol, 298.15 K): -0.533 kcal/mol
- lnγ^∞ ([2]; 1-octanol, 298.15 K): 2.36
- ςH^E ([2]; 1-octanol, 298.15 K): 61.9%
- ςTS^E ([2]; 1-octanol, 298.15 K): 38.1%
- lnγ^∞ ([2]; 1-octanol, 303.15 K): 2.34
- lnγ^∞ ([2]; 1-octanol, 308.15 K): 2.32
- lnγ^∞ ([2]; 1-octanol, 313.15 K): 2.30
- lnγ^∞ ([2]; 1-propanol, 293.15 K): 2.16
- G^E ([2]; 1-propanol, 298.15 K): 1.25 ± 0.048 kcal/mol
- H^E ([2]; 1-propanol, 298.15 K): 1.19 ± 0.024 kcal/mol
- S^E ([2]; 1-propanol, 298.15 K): −0.9 ± 0.04 J·mol^−1·K^−1
- TS^E ([2]; 1-propanol, 298.15 K): -0.0669 kcal/mol
- lnγ^∞ ([2]; 1-propanol, 298.15 K): 2.12
- ςH^E ([2]; 1-propanol, 298.15 K): 94.7%
- ςTS^E ([2]; 1-propanol, 298.15 K): 5.3%
- lnγ^∞ ([2]; 1-propanol, 303.15 K): 2.09
- lnγ^∞ ([2]; 1-propanol, 308.15 K): 2.06
- lnγ^∞ ([2]; 1-propanol, 313.15 K): 2.03
- lnγ^∞ ([2]; buffer pH 1.2, 293.15 K): 11.51
- G^E ([2]; buffer pH 1.2, 298.15 K): 6.84 ± 0.12 kcal/mol
- H^E ([2]; buffer pH 1.2, 298.15 K): -1.54 ± 0.024 kcal/mol
- S^E ([2]; buffer pH 1.2, 298.15 K): −117.5 ± 4.1 J·mol^−1·K^−1
- TS^E ([2]; buffer pH 1.2, 298.15 K): -8.372 kcal/mol
- lnγ^∞ ([2]; buffer pH 1.2, 298.15 K): 11.55
- ςH^E ([2]; buffer pH 1.2, 298.15 K): 15.3%
- ςTS^E ([2]; buffer pH 1.2, 298.15 K): 84.7%
- lnγ^∞ ([2]; buffer pH 1.2, 303.15 K): 11.59
- lnγ^∞ ([2]; buffer pH 1.2, 308.15 K): 11.64
- lnγ^∞ ([2]; buffer pH 1.2, 313.15 K): 11.67
- lnγ^∞ ([2]; buffer pH 2.0, 293.15 K): 12.82
- G^E ([2]; buffer pH 2.0, 298.15 K): 7.58 ± 0.14 kcal/mol
- H^E ([2]; buffer pH 2.0, 298.15 K): 1.24 ± 0.072 kcal/mol
- S^E ([2]; buffer pH 2.0, 298.15 K): −88.9 ± 5.1 J·mol^−1·K^−1
- TS^E ([2]; buffer pH 2.0, 298.15 K): -6.334 kcal/mol
- lnγ^∞ ([2]; buffer pH 2.0, 298.15 K): 12.80
- ςH^E ([2]; buffer pH 2.0, 298.15 K): 16.4%
- ςTS^E ([2]; buffer pH 2.0, 298.15 K): 83.6%
- lnγ^∞ ([2]; buffer pH 2.0, 303.15 K): 12.76
- lnγ^∞ ([2]; buffer pH 2.0, 308.15 K): 12.72
- lnγ^∞ ([2]; buffer pH 2.0, 313.15 K): 12.69
- lnγ^∞ ([2]; buffer pH 7.4, 293.15 K): 13.26
- G^E ([2]; buffer pH 7.4, 298.15 K): 7.82 ± 0.14 kcal/mol
- H^E ([2]; buffer pH 7.4, 298.15 K): 1.7 ± 0.024 kcal/mol
- S^E ([2]; buffer pH 7.4, 298.15 K): −85.9 ±2.9 J·mol^−1·K^−1
- TS^E ([2]; buffer pH 7.4, 298.15 K): -6.12 kcal/mol
- lnγ^∞ ([2]; buffer pH 7.4, 298.15 K): 13.21
- ςH^E ([2]; buffer pH 7.4, 298.15 K): 21.7%
- ςTS^E ([2]; buffer pH 7.4, 298.15 K): 78.3%
- lnγ^∞ ([2]; buffer pH 7.4, 303.15 K): 13.15
- lnγ^∞ ([2]; buffer pH 7.4, 308.15 K): 13.11
- lnγ^∞ ([2]; buffer pH 7.4, 313.15 K): 13.08
- entropy term ζTS^E ([2]; buffer solutions): > 78%
- lnγ^∞ ([2]; ethanol, 293.15 K): 2.00
- G^E ([2]; ethanol, 298.15 K): 1.15 ± 0.024 kcal/mol
- H^E ([2]; ethanol, 298.15 K): 1.72 ± 0.024 kcal/mol
- S^E ([2]; ethanol, 298.15 K): 8.0 ± 0.3 J·mol^−1·K^−1
- TS^E ([2]; ethanol, 298.15 K): 0.569 kcal/mol
- lnγ^∞ ([2]; ethanol, 298.15 K): 1.95
- ςH^E ([2]; ethanol, 298.15 K): 75.2%
- ςTS^E ([2]; ethanol, 298.15 K): 24.8%
- lnγ^∞ ([2]; ethanol, 303.15 K): 1.91
- lnγ^∞ ([2]; ethanol, 308.15 K): 1.86
- lnγ^∞ ([2]; ethanol, 313.15 K): 1.81
- lnγ^∞ ([2]; hexane, 293.15 K): 7.12
- G^E ([2]; hexane, 298.15 K): 4.16 ± 0.072 kcal/mol
- H^E ([2]; hexane, 298.15 K): 3.033 ± 0.024 kcal/mol
- S^E ([2]; hexane, 298.15 K): −15.8 ± 0.4 J·mol^−1·K^−1
- TS^E ([2]; hexane, 298.15 K): -1.13 kcal/mol
- lnγ^∞ ([2]; hexane, 298.15 K): 7.03
- ςH^E ([2]; hexane, 298.15 K): 72.9%
- ςTS^E ([2]; hexane, 298.15 K): 27.1%
- lnγ^∞ ([2]; hexane, 303.15 K): 6.95
- lnγ^∞ ([2]; hexane, 308.15 K): 6.86
- lnγ^∞ ([2]; hexane, 313.15 K): 6.79
SMILES: C[C@@H](c1nc(-c2ccc(C#N)cc2)cs1)[C@](O)(Cn1cncn1)c1cc(F)ccc1F [IVZ, Isavuconazole]
